According to US20020132812A1, “Oral hypoglycaemic agents” (priority 2000, published 2002):

What was measured:
mouse pancreatic β-cells = assay: Ca2+-evoked exocytosis (cell capacitance, whole-cell patch clamp) in single mouse pancreatic β-cells; assay type: cell-based; conditions: 100 μM compound in pipette solution, free Ca2+ 0.2 μM
Excerpt: Pancreatic islets were isolated from fed NMRI mice (15-23 g). Briefly, the mice were stunned by a blow against the head and killed by cervical dislocation. The pancreas was quickly removed and pancreatic islets were isolated by collagenase (Sigma) digestion (Gromada et al. J. Physiol., Vol. 518 (3) pp. 745-759, 1999). For insulin release experiments, the islets were kept in RPMI-1640 tissue culture medium overnight before use. […]
Patch pipettes were drawn from borosilicate glass capillaries. […] The currents were recorded using an Axopatch 200B patch clamp amplifier (Axon Instruments, Foster City, Calif., USA), digitized and stored in a computer using the Digidata AD-converter and the software pClamp (version 6.0; Axon Instruments). Alternatively, KATP-currents were recorded using an EPC-9 patch clamp amplifier and the Pulse software (v. 8.01; HEKA Elektronik, Lamprecht/Pfalz, Germany). Exocytosis was monitored as increases in cell membrane capacitance (Neher & Marty Proc. Natl. Acad, Sci. USA, Vol. 79, pp. 6712-6716,1982) using the standard whole-cell configuration of the patch-clamp technique and an EPC-9 patch-clamp amplifier and the Pulse software (v. 8.01; HEKA Elektronik). […]

intact mouse islets = assay: Insulin release from intact mouse islets (ELISA); assay type: cell-based; conditions: 100 μM compound, 60 min incubation
Protocol: Intact pancreatic islets were isolated from fed NMRI mice (15-18 g) as previously described (Fuhlendorff et al., Diabetes, Vol. 47 (3) pp. 345-351, 1998). Insulin release was measured from groups of 10 size-matched islets, cultured overnight in RPMI-1640 tissue culture medium containing 1% GlutaMAX™ (Gibco BRL),1% penicillin/streptomycin, 7.5% NaHCO3 and 10% new-born calf serum. The islets were washed for 20 minutes in Krebs Ringer Buffer consisting of 115 mM NaCl, 4.7 mM KCl, 2.6 mM CaCl2, 1.2 mM KH2PO4, 1.2 mM MgSO4, 20 mM HEPES, 2 mM glutamine, 5 mM NaHCO3, 0.2% human serum albumin and 1% penicillin/streptomycin) and 2.5 mM, 5 mM or 10 mM D-glucose. Afterwashing, the islet were incubated for one hour at +37° C. in Krebs Ringer Buffer containing the test compound at 100 μM and glucose at 2.5 mM, 5 mM or 10 mM. After the one-hour incubation, the medium was aspirated and kept at −20° C. until assayed for insulin using the following ELISA technique. Immuno 96 well paltes (MaxiSorPTM, NUNC, Denmark) were coated over night at 4° C. with a rabbit-anti-guinea pig-lgG (Dako) antibody diluted 1:1000 in 0.1 M NaHCO3 (pH 9.8). After washing 4 times in 0.15 M NaCl and 0.005% Tween-20 the plates were incubated with guinea pig-anti-insulin diluted in phosphate buffered saline (incubation buffer; pH 7.4) containing 0.1% Tween-20 and 0.5% human serum albumin over night. After washing the sambles were incubated for 1.5 h with relevant samples and peroxidase-insulin (Sigma) diluted 1:10000 in PBS-DIL. The samples we-were then washed and developed with TMBPlus-substrated as described by the manufacture (KEM EN TEC, Denmark). The amount of insulin was quantified from a standard curve after reading the samples at 450 nm.
Elevating the external glucose concentration from 2.5 mM to 5 mM was not associated with an increase in insulin release whereas a 90% stimulation was observed following application of 10 mM glucose (P<0.05; n=8).

COc1cccc(C(CC2=NCCN2)c2ccccn2)c1 (single isomer, unassigned; (-)) [compound (Ex 2), (−)-2-(2-(4,5-Dihydro-1H-imidazol-2-yl)-1-(3-methoxyphenyl)ethyl)pyridine]
effect on Ca2+-evoked exocytosis (in words) (mouse pancreatic β-cells): strong stimulation of exocytosis
rate of exocytosis (ΔCm/Δt) measured over the first 60 s after establishment of the whole-cell configuration (mouse pancreatic β-cells; control 5.0±0.3 fF/s, P<0.025): 9.4±1.7 fF/s
effect on insulin release (intact mouse islets; 2.5 mM glucose): does not affect insulin release
effect on insulin release (intact mouse islets; 5 mM glucose): does not affect insulin release
stimulation of insulin secretion (intact mouse islets; 10 mM glucose, P<0.01, n=8): 220%
